This note sets out measurements from patent publication US20130295055A1 (priority 2011, published 2013).

Like-named read-outs stand apart in the source and are kept apart here.

Assay type in all cases: cell-based
Experiment [1] has as its system Avian influenza virus AIV0028 (H9N2). As to conditions: Soft Water (Distilled Water).
Another experiment deals with Standard strain E. coli. The experiment in a line: Sterilization effectiveness on E. coli (number of bacteria over time).
Another experiment deals with Standard strain Listeria. Description: Sterilization effectiveness on Listeria (number of bacteria over time).
Experiment [2] relates to Salmonella typhimurium ATCC 19585 and Salmonella typhimurium ATCC 43174. The experiment in a line: Sterilization effectiveness on Salmonella (number of bacteria over time). On the procedure:
Inhibitory effect was evaluated by measuring total numbers of bacteria over time, and the number of bacteria was expressed as log10 CFU/ml.
Standard strains Salmonella typhimurium ATCC 19585 and Salmonella typhimurium ATCC 43174 were purchased from American Type culture collection, and were incubated in Rappaport-Vassiliadis Soya Peptone Broth (CM0866, Oxoid, the United Kingdom) in a bacterial incubator at 37° C. for 24 hours. Total number of bacteria was measured by diluting strains at stationary phase to 6 to 7 log(cfu/mL).
0.2% peptone water was used as a diluent, and the smeared plate medium was incubated in a 37° C. bacterial incubator for 24 hours, and the number of white single colony was counted. Evaluation was carried out with the average of triplicate.
Malic acid was added to be 0.5%, 1.0%, 2.0%, respectively, to the prepared single colony of Salmonella, and the inhibitory effect on Salmonella over time was examined.

On to `O=C(O)CC(O)(CC(=O)O)C(=O)O` [Citric Acid, citric acid], for which the “Avian Influenza Titer” value turned out to be 1.25 log 10 in experiment [1] (Citric Acid Concentration 2%, Dilution Rate 1:12.5); 2.00 log 10 in experiment [1] (Citric Acid Concentration 2%, Dilution Rate 1:25); 2.00 log 10 in experiment [1] (Citric Acid Concentration 4%, Dilution Rate 1:50); 2.00 log 10 in experiment [1] (Citric Acid Concentration 6%, Dilution Rate 1:50); 0.75 log 10 in experiment [1] (Citric Acid Concentration 8%, Dilution Rate 1:50).

Consider `O=C(O)CC(O)(CC(=O)O)C(=O)O` [SAL + BROTH (CA 0.5%), citric acid], for which the “number of E. coli bacteria” value came out at 8.72 log10 CFU/ml in the experiment on Standard strain E. coli (0 min); 8.70 log10 CFU/ml in the experiment with Standard strain E. coli (10 min, listed as EC + Broth (CA 0.5%)); 8.64 log10 CFU/ml with Standard strain E. coli (20 min, listed as EC + Broth (CA 0.5%)); 8.66 log10 CFU/ml with Standard strain E. coli (30 min, listed as EC + Broth (CA 0.5%)); 8.67 log10 CFU/ml in the experiment on Standard strain E. coli (60 min, listed as EC + Broth (CA 0.5%)). The “number of Listeria bacteria” value with Standard strain Listeria (0 min) came to 8.62 log10 CFU/ml; in the experiment with Standard strain Listeria (10 min, listed as LIS + BROTH (CA 0.5%)), 8.52 log10 CFU/ml; in the experiment with Standard strain Listeria (20 min, listed as LIS + BROTH (CA 0.5%)) it was 8.48 log10 CFU/ml; with Standard strain Listeria (30 min, listed as LIS + BROTH (CA 0.5%)), 8.51 log10 CFU/ml; in the experiment with Standard strain Listeria (60 min, listed as LIS + BROTH (CA 0.5%)), 8.39 log10 CFU/ml.

Take `O=C(O)CC(O)(CC(=O)O)C(=O)O` [SAL + BROTH (CA 1.0%), citric acid]: the “number of E. coli bacteria” value with Standard strain E. coli (0 min) turned out to be 8.72 log10 CFU/ml; in the experiment with Standard strain E. coli (10 min, listed as EC + Broth (CA 1.0%)), 8.71 log10 CFU/ml; in the experiment on Standard strain E. coli (20 min, listed as EC + Broth (CA 1.0%)), 8.65 log10 CFU/ml; in the experiment with Standard strain E. coli (30 min, listed as EC + Broth (CA 1.0%)) it was 8.70 log10 CFU/ml; in the experiment with Standard strain E. coli (60 min, listed as EC + Broth (CA 1.0%)), 8.71 log10 CFU/ml. The “number of Listeria bacteria” value with Standard strain Listeria (0 min) amounted to 8.62 log10 CFU/ml; with Standard strain Listeria (10 min, listed as LIS + BROTH (CA 1.0%)), 8.47 log10 CFU/ml; in the experiment on Standard strain Listeria (20 min, listed as LIS + BROTH (CA 1.0%)), 8.48 log10 CFU/ml; with Standard strain Listeria (30 min, listed as LIS + BROTH (CA 1.0%)), 8.41 log10 CFU/ml; in the experiment on Standard strain Listeria (60 min, listed as LIS + BROTH (CA 1.0%)), 8.42 log10 CFU/ml.

Take `O=C(O)CC(O)(CC(=O)O)C(=O)O` [SAL + BROTH (CA 2.0%), citric acid]: the “number of E. coli bacteria” value with Standard strain E. coli (0 min) is 8.72 log10 CFU/ml; in the experiment on Standard strain E. coli (10 min, listed as EC + Broth (CA 2.0%)) it was 8.71 log10 CFU/ml; in the experiment with Standard strain E. coli (20 min, listed as EC + Broth (CA 2.0%)), 8.67 log10 CFU/ml; in the experiment with Standard strain E. coli (30 min, listed as EC + Broth (CA 2.0%)), 8.65 log10 CFU/ml; in the experiment on Standard strain E. coli (60 min, listed as EC + Broth (CA 2.0%)) it was 8.61 log10 CFU/ml. Besides, the “number of Listeria bacteria” value with Standard strain Listeria (0 min) was found to be 8.62 log10 CFU/ml; with Standard strain Listeria (10 min, listed as LIS + BROTH (CA 2.0%)), 8.37 log10 CFU/ml; with Standard strain Listeria (20 min, listed as LIS + BROTH (CA 2.0%)) it was 8.37 log10 CFU/ml; in the experiment with Standard strain Listeria (30 min, listed as LIS + BROTH (CA 2.0%)), 8.38 log10 CFU/ml; in the experiment on Standard strain Listeria (60 min, listed as LIS + BROTH (CA 2.0%)) it was 8.40 log10 CFU/ml.

For `O=C(O)CC(O)C(=O)O` (centres unmarked) [SAL + BROTH (MA 0.5%), malic acid], the “number of E. coli bacteria” value in the experiment on Standard strain E. coli (0 min) is reported as 8.61 log10 CFU/ml; in the experiment on Standard strain E. coli (10 min, listed as EC + Broth (MA 0.5%)), 8.67 log10 CFU/ml; in the experiment on Standard strain E. coli (20 min, listed as EC + Broth (MA 0.5%)), 8.66 log10 CFU/ml; in the experiment on Standard strain E. coli (30 min, listed as EC + Broth (MA 0.5%)), 8.86 log10 CFU/ml; with Standard strain E. coli (60 min, listed as EC + Broth (MA 0.5%)), 8.79 log10 CFU/ml. In addition, the “number of Listeria bacteria” value was determined as 8.67 log10 CFU/ml in the experiment on Standard strain Listeria (0 min); 8.55 log10 CFU/ml in the experiment on Standard strain Listeria (10 min, listed as LIS + BROTH (MA 0.5%)); 8.61 log10 CFU/ml in the experiment on Standard strain Listeria (20 min, listed as LIS + BROTH (MA 0.5%)); 8.56 log10 CFU/ml with Standard strain Listeria (30 min, listed as LIS + BROTH (MA 0.5%)); 8.58 log10 CFU/ml with Standard strain Listeria (60 min, listed as LIS + BROTH (MA 0.5%)). For the same compound, the “number of Salmonella bacteria” value is given as 9.02 log10 CFU/ml in experiment [2] (0 min); 9.04 log10 CFU/ml in experiment [2] (10 min); 9.05 log10 CFU/ml in experiment [2] (20 min); 9.04 log10 CFU/ml in experiment [2] (30 min); 9.09 log10 CFU/ml in experiment [2] (60 min).

With `O=C(O)CC(O)C(=O)O` (centres unmarked) [SAL + BROTH (MA 1.0%), malic acid], the “number of E. coli bacteria” value with Standard strain E. coli (0 min) turned out to be 8.61 log10 CFU/ml; with Standard strain E. coli (10 min, listed as EC + Broth (MA 1.0%)), 8.78 log10 CFU/ml; with Standard strain E. coli (20 min, listed as EC + Broth (MA 1.0%)), 8.74 log10 CFU/ml; with Standard strain E. coli (30 min, listed as EC + Broth (MA 1.0%)), 8.77 log10 CFU/ml; in the experiment on Standard strain E. coli (60 min, listed as EC + Broth (MA 1.0%)) it was 8.94 log10 CFU/ml. The “number of Listeria bacteria” value is listed as 8.67 log10 CFU/ml with Standard strain Listeria (0 min); 8.69 log10 CFU/ml in the experiment on Standard strain Listeria (10 min, listed as LIS + BROTH(MA 1.0%)); 8.60 log10 CFU/ml in the experiment on Standard strain Listeria (20 min, listed as LIS + BROTH(MA 1.0%)); 8.60 log10 CFU/ml in the experiment with Standard strain Listeria (30 min, listed as LIS + BROTH(MA 1.0%)); 8.59 log10 CFU/ml in the experiment with Standard strain Listeria (60 min, listed as LIS + BROTH(MA 1.0%)). Moreover, the “number of Salmonella bacteria” value in experiment [2] (0 min) is 9.02 log10 CFU/ml; in experiment [2] (10 min), 9.03 log10 CFU/ml; in experiment [2] (20 min), 9.04 log10 CFU/ml; in experiment [2] (30 min) it was 9.04 log10 CFU/ml; in experiment [2] (60 min), 8.88 log10 CFU/ml.

Consider `O=C(O)CC(O)C(=O)O` (centres unmarked) [SAL + BROTH (MA 2.0%), malic acid], for which the “number of E. coli bacteria” value worked out at 8.61 log10 CFU/ml in the experiment on Standard strain E. coli (0 min); 8.69 log10 CFU/ml in the experiment on Standard strain E. coli (10 min, listed as EC + Broth (MA 2.0%)); 8.68 log10 CFU/ml in the experiment on Standard strain E. coli (20 min, listed as EC + Broth (MA 2.0%)); 8.79 log10 CFU/ml in the experiment on Standard strain E. coli (30 min, listed as EC + Broth (MA 2.0%)); 8.63 log10 CFU/ml in the experiment with Standard strain E. coli (60 min, listed as EC + Broth (MA 2.0%)). The “number of Listeria bacteria” value in the experiment on Standard strain Listeria (0 min) came to 8.67 log10 CFU/ml; in the experiment on Standard strain Listeria (10 min, listed as LIS + BROTH(MA 2.0%)), 8.51 log10 CFU/ml; in the experiment on Standard strain Listeria (20 min, listed as LIS + BROTH(MA 2.0%)) it was 8.62 log10 CFU/ml; in the experiment with Standard strain Listeria (30 min, listed as LIS + BROTH(MA 2.0%)) it was 8.55 log10 CFU/ml; in the experiment with Standard strain Listeria (60 min, listed as LIS + BROTH(MA 2.0%)), 8.61 log10 CFU/ml. Besides, the “number of Salmonella bacteria” value in experiment [2] (0 min) came to 9.02 log10 CFU/ml; in experiment [2] (10 min), 8.88 log10 CFU/ml; in experiment [2] (20 min), 8.73 log10 CFU/ml; in experiment [2] (30 min) it was 8.63 log10 CFU/ml; in experiment [2] (60 min) it was 7.50 log10 CFU/ml.
